Experimental data from paper PMC11480411, “Mucosal sugars delineate pyrazine vs pyrazinone autoinducer signaling in Klebsiella oxytoca” (Nature Communications, 2024).

Assays:
Assay in all cases: PRESTO-Tango GPCR screen
Format in all cases: cell-based
Conditions in all cases: 100 µM
GPR101 = molecular target: T1, GPR101 (Homo sapiens, UniProt Q96P66)
T1 construct: purchased PRESTO-Tango GPCR kit (Roth lab / Addgene)
How it was run: (§1)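 Steps: HTLA cells plated; next day, GPCR-Tango plasmid delivered with polyethylenimine; 16-24 h later, medium swapped for DMEM with 10 mM HEPES plus compound (100 μM final); 20 h later, Bright-Glo added and luminescence measured; fold over PBS computed.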

GLP2R = molecular target: T2, GLP2R (Homo sapiens, UniProt O95838)
T2 construct: purchased PRESTO-Tango GPCR kit (Roth lab / Addgene)
How it was run: as §1

AVPR2 = molecular target: T3, AVPR2 (Homo sapiens, UniProt P30518)
T3 construct: purchased PRESTO-Tango GPCR kit (Roth lab / Addgene)
How it was run: as §1

GPR85 = molecular target: T4, GPR85 (Homo sapiens, UniProt P60893)
T4 construct: purchased PRESTO-Tango GPCR kit (Roth lab / Addgene)
How it was run: as §1

PTAFR = molecular target: T5, PTAFR (Homo sapiens, UniProt P25105)
T5 construct: purchased PRESTO-Tango GPCR kit (Roth lab / Addgene)
How it was run: as §1

GPR153 = molecular target: T6, GPR153 (Homo sapiens, UniProt Q6NV75)
T6 construct: purchased PRESTO-Tango GPCR kit (Roth lab / Addgene)
How it was run: as §1

GPR64 = molecular target: T7, GPR64 (Homo sapiens, UniProt Q8IZP9)
T7 construct: purchased PRESTO-Tango GPCR kit (Roth lab / Addgene)
How it was run: as §1

CRHR2 = molecular target: T8, CRHR2 (Homo sapiens, UniProt Q13324)
T8 construct: purchased PRESTO-Tango GPCR kit (Roth lab / Addgene)
How it was run: as §1

MRGPRX1 = molecular target: T9, MRGPRX1 (Homo sapiens, UniProt Q96LB2)
T9 construct: purchased PRESTO-Tango GPCR kit (Roth lab / Addgene)
How it was run: as §1

CD97 = molecular target: T10, CD97 (Homo sapiens, UniProt P48960)
T10 construct: purchased PRESTO-Tango GPCR kit (Roth lab / Addgene)
How it was run: as §1

GPR156 = molecular target: T11, GPR156 (Homo sapiens, UniProt Q8NFN8)
T11 construct: purchased PRESTO-Tango GPCR kit (Roth lab / Addgene)
How it was run: as §1

ADORA1 = molecular target: T12, ADORA1 (Homo sapiens, UniProt P30542)
T12 construct: purchased PRESTO-Tango GPCR kit (Roth lab / Addgene)
How it was run: as §1

GAL1 = molecular target: T13, GAL1 (Homo sapiens, UniProt P47211)
T13 construct: purchased PRESTO-Tango GPCR kit (Roth lab / Addgene)
How it was run: as §1

GPR110 = molecular target: T14, GPR110 (Homo sapiens, UniProt Q5T601)
T14 construct: purchased PRESTO-Tango GPCR kit (Roth lab / Addgene)
How it was run: as §1

GPR135 = molecular target: T15, GPR135 (Homo sapiens, UniProt Q8IZ08)
T15 construct: purchased PRESTO-Tango GPCR kit (Roth lab / Addgene)
How it was run: as §1

GPR152 = molecular target: T16, GPR152 (Homo sapiens, UniProt Q8TDT2)
T16 construct: purchased PRESTO-Tango GPCR kit (Roth lab / Addgene)
How it was run: as §1

ADRA1A = molecular target: T17, ADRA1A (Homo sapiens, UniProt P35348)
T17 construct: purchased PRESTO-Tango GPCR kit (Roth lab / Addgene)
How it was run: as §1

CNR2 = molecular target: T18, CNR2 (Homo sapiens, UniProt P34972)
T18 construct: purchased PRESTO-Tango GPCR kit (Roth lab / Addgene)
How it was run: as §1

TAAR9 = molecular target: T19, TAAR9 (Homo sapiens, UniProt Q96RI9)
T19 construct: purchased PRESTO-Tango GPCR kit (Roth lab / Addgene)
How it was run: as §1

PTGER2 = molecular target: T20, PTGER2 (Homo sapiens, UniProt P43116)
T20 construct: purchased PRESTO-Tango GPCR kit (Roth lab / Addgene)
How it was run: as §1

HCTR1 = molecular target: T21, HCTR1 (Homo sapiens, UniProt O43613)
T21 construct: purchased PRESTO-Tango GPCR kit (Roth lab / Addgene)
How it was run: as §1

GPER = molecular target: T22, GPER (Homo sapiens, UniProt Q99527)
T22 construct: purchased PRESTO-Tango GPCR kit (Roth lab / Addgene)
How it was run: as §1

CHRM3 = molecular target: T23, CHRM3 (Homo sapiens, UniProt P20309)
T23 construct: purchased PRESTO-Tango GPCR kit (Roth lab / Addgene)
How it was run: as §1

P2RY12 = molecular target: T24, P2RY12 (Homo sapiens, UniProt Q9H244)
T24 construct: purchased PRESTO-Tango GPCR kit (Roth lab / Addgene)
How it was run: as §1

BDKBR1 = molecular target: T25, BDKBR1 (Homo sapiens, UniProt P46663)
T25 construct: purchased PRESTO-Tango GPCR kit (Roth lab / Addgene)
How it was run: as §1

S1PR4 = molecular target: T26, S1PR4 (Homo sapiens, UniProt O95977)
T26 construct: purchased PRESTO-Tango GPCR kit (Roth lab / Addgene)
How it was run: as §1

HTR2A = molecular target: T27, HTR2A (Homo sapiens, UniProt P28223)
T27 construct: purchased PRESTO-Tango GPCR kit (Roth lab / Addgene)
How it was run: as §1

C5A = molecular target: T28, C5A (Homo sapiens, UniProt P21730)
T28 construct: purchased PRESTO-Tango GPCR kit (Roth lab / Addgene)
How it was run: as §1

PK2 = molecular target: T29, PK2 (Homo sapiens, UniProt Q8NFJ6)
T29 construct: purchased PRESTO-Tango GPCR kit (Roth lab / Addgene)
How it was run: as §1

CNR1 = molecular target: T30, CNR1 (Homo sapiens, UniProt P21554)
T30 construct: purchased PRESTO-Tango GPCR kit (Roth lab / Addgene)
How it was run: as §1

VIPR2 = molecular target: T31, VIPR2 (Homo sapiens, UniProt P41587)
T31 construct: purchased PRESTO-Tango GPCR kit (Roth lab / Addgene)
How it was run: as §1

GPR20 = molecular target: T32, GPR20 (Homo sapiens, UniProt Q99678)
T32 construct: purchased PRESTO-Tango GPCR kit (Roth lab / Addgene)
How it was run: as §1

GHSR = molecular target: T33, GHSR (Homo sapiens, UniProt Q92847)
T33 construct: purchased PRESTO-Tango GPCR kit (Roth lab / Addgene)
How it was run: as §1

P2RY8 = molecular target: T34, P2RY8 (Homo sapiens, UniProt Q86VZ1)
T34 construct: purchased PRESTO-Tango GPCR kit (Roth lab / Addgene)
How it was run: as §1

ADORA2A = molecular target: T35, ADORA2A (Homo sapiens, UniProt P29274)
T35 construct: purchased PRESTO-Tango GPCR kit (Roth lab / Addgene)
How it was run: as §1

PK1 = molecular target: T36, PK1 (Homo sapiens, UniProt Q8TCW9)
T36 construct: purchased PRESTO-Tango GPCR kit (Roth lab / Addgene)
How it was run: as §1

T34 sequence (Q86VZ1 whole entry): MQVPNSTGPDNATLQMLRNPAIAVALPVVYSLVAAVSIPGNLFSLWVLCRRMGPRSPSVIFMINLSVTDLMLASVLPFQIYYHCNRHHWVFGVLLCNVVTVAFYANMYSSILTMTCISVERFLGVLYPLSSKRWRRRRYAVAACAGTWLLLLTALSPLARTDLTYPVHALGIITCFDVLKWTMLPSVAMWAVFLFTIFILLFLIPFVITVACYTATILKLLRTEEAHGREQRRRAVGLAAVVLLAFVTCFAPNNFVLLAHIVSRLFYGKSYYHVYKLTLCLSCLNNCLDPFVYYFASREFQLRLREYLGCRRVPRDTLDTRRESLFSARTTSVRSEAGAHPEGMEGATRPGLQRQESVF
T7 sequence (Q8IZP9 38-1017): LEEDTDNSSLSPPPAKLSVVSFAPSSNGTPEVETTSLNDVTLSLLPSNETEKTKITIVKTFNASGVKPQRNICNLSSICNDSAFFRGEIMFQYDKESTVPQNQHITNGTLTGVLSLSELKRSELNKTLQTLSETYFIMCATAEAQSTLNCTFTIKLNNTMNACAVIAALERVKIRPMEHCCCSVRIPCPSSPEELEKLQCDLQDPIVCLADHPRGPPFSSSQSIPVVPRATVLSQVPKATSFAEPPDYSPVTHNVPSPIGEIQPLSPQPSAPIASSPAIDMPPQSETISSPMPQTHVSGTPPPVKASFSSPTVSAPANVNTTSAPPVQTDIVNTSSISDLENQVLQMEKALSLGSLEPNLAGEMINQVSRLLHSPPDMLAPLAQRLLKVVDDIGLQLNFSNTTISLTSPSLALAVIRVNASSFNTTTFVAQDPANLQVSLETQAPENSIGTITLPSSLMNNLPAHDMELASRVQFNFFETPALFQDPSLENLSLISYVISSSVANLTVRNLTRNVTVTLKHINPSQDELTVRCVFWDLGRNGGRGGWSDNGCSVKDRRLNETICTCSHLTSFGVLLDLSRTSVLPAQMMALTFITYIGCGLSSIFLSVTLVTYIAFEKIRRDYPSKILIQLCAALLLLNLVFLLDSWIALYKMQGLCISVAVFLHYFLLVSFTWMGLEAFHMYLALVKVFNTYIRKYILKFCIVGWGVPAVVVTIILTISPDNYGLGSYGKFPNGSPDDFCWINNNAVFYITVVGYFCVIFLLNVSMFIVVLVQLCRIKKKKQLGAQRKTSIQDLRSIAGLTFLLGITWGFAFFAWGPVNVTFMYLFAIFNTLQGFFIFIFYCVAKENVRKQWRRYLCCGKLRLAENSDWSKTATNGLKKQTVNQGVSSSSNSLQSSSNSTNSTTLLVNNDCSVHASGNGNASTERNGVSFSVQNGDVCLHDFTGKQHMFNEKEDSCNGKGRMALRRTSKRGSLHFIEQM
T24 sequence (Q9H244 whole entry, one chain of several): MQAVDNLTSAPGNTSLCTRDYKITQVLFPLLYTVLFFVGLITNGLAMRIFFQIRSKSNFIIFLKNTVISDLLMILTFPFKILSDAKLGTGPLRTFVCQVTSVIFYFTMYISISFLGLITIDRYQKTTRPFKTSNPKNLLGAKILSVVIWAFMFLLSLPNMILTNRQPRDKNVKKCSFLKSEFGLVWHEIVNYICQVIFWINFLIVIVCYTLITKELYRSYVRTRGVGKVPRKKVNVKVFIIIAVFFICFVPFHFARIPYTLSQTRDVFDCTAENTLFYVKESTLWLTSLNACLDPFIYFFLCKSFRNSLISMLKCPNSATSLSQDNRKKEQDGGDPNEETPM
T22 sequence (Q99527 whole entry): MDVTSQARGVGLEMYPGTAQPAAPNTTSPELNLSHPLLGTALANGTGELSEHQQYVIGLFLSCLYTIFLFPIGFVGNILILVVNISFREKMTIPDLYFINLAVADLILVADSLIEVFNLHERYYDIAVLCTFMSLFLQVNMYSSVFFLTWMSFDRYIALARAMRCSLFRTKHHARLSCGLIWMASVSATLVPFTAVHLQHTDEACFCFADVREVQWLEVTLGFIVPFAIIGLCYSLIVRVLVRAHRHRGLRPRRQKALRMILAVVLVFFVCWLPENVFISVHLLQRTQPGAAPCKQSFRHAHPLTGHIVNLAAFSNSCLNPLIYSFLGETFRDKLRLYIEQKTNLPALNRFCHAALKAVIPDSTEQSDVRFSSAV
T20 sequence (P43116 whole entry): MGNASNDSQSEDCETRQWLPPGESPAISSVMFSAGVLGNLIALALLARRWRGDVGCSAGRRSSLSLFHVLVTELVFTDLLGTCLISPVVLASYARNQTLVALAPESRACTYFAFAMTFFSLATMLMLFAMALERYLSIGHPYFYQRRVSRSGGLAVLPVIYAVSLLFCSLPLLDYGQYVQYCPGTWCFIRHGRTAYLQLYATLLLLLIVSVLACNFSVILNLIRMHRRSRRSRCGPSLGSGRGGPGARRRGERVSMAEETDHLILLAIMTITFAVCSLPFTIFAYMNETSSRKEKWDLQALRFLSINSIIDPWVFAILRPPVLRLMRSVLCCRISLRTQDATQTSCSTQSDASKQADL
T16 sequence (Q8TDT2 whole entry): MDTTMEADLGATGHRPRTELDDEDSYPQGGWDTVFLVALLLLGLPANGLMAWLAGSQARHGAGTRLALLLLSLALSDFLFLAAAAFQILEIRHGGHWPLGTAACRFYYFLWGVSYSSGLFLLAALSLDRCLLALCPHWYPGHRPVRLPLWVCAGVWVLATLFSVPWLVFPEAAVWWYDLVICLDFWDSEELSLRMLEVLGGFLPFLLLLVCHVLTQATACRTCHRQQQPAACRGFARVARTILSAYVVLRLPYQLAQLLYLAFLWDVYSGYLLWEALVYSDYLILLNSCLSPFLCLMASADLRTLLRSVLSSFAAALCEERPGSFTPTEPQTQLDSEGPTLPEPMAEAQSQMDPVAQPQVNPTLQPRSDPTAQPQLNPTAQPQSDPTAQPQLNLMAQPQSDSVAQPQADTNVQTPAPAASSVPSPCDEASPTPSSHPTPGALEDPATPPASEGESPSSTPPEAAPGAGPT
T6 sequence (Q6NV75 whole entry): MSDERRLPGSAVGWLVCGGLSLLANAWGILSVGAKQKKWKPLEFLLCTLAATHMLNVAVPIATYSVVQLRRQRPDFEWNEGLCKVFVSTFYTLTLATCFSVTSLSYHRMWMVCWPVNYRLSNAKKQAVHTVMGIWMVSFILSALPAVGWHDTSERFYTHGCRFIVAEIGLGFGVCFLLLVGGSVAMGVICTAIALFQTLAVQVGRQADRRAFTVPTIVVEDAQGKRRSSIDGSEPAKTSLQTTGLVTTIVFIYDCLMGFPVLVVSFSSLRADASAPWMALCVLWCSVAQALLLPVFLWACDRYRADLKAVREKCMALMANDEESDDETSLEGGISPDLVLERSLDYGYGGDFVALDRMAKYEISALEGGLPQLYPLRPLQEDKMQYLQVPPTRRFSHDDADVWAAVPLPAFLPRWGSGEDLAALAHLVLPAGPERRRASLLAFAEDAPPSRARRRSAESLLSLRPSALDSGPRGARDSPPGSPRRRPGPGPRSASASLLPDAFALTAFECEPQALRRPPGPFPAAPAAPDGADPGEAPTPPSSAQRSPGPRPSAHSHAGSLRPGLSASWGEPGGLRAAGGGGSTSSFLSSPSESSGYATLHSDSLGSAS
T1 sequence (Q96P66 whole entry): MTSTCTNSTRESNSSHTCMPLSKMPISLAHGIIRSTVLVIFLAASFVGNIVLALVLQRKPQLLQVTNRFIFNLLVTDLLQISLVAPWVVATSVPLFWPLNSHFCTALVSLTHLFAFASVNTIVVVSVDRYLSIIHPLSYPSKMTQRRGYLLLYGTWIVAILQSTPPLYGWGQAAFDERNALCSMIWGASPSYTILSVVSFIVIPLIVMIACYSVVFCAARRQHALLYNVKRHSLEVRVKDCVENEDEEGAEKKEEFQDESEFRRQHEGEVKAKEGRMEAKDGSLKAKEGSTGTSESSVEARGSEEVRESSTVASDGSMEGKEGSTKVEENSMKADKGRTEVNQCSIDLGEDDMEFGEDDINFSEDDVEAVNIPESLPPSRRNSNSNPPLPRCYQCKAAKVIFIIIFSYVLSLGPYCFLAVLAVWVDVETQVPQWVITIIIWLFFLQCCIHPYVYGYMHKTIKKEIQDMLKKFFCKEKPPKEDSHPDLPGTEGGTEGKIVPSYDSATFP
T35 sequence (P29274 whole entry): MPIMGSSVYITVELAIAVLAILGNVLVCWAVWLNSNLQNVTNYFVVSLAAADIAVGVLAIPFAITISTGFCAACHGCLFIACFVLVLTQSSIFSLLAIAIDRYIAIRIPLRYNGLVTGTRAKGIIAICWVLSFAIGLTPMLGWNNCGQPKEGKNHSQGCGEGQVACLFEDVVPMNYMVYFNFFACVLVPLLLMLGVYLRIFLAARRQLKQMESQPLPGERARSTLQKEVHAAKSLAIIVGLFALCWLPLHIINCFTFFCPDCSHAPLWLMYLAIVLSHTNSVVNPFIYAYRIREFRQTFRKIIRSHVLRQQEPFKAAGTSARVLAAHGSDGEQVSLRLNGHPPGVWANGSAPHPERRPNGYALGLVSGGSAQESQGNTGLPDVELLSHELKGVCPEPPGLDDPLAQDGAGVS
T32 sequence (Q99678 whole entry): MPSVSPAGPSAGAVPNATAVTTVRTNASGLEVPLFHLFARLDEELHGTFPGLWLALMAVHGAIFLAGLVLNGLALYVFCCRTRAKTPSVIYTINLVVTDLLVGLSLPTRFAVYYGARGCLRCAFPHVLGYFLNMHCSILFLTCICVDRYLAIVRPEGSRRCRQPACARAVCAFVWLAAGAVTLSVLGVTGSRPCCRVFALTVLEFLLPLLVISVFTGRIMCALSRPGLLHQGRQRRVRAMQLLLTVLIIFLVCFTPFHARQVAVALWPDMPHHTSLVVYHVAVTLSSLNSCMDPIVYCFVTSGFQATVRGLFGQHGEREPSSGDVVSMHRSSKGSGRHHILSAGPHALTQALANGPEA

| SMILES | GPCR activation (heatmap value) (GPR101) | GPCR activation (heatmap value) (GLP2R) | GPCR activation (heatmap value) (AVPR2) | GPCR activation (heatmap value) (GPR85) | GPCR activation (heatmap value) (PTAFR) | GPCR activation (heatmap value) (GPR153) | GPCR activation (heatmap value) (GPR64) | GPCR activation (heatmap value) (CRHR2) | GPCR activation (heatmap value) (MRGPRX1) | GPCR activation (heatmap value) (CD97) | GPCR activation (heatmap value) (GPR156) | GPCR activation (heatmap value) (ADORA1) | GPCR activation (heatmap value) (GAL1) | GPCR activation (heatmap value) (GPR110) | GPCR activation (heatmap value) (GPR135) | GPCR activation (heatmap value) (GPR152) | GPCR activation (heatmap value) (ADRA1A) | GPCR activation (heatmap value) (CNR2) | GPCR activation (heatmap value) (TAAR9) | GPCR activation (heatmap value) (PTGER2) | also measured |
| --- | --- | --- | --- | --- | --- | --- | --- | --- | --- | --- | --- | --- | --- | --- | --- | --- | --- | --- | --- | --- | --- |
| CC(C)Cc1ncc(CCCNC(=N)N)[nH]c1=O [compound 3] | 0.4147 | 0.1898 | -1.811 | -0.1892 | -0.05027 | 0.1913 | 0.632 | -0.2766 | -1.215 | 0.5 | 0.1542 | 0.2527 | -0.09983 | 0.3323 | -1.115 | -1.289 | -0.2156 | -0.04866 | -0.2146 | -0.3243 | GPCR activation (heatmap value) (HCTR1): -0.3941; GPCR activation (heatmap value) (GPER): 0.1603; GPCR activation (heatmap value) (CHRM3): -0.8614; GPCR activation (heatmap value) (P2RY12): 0.4559; GPCR activation (heatmap value) (BDKBR1): -0.1783; GPCR activation (heatmap value) (S1PR4): 0.1012; GPCR activation (heatmap value) (HTR2A): -0.2048; GPCR activation (heatmap value) (C5A): 0.1076; GPCR activation (heatmap value) (PK2): -0.4477; GPCR activation (heatmap value) (CNR1): 0.2678; GPCR activation (heatmap value) (VIPR2): -0.5721; GPCR activation (heatmap value) (GPR20): 1.634; GPCR activation (heatmap value) (GHSR): -0.1187; GPCR activation (heatmap value) (P2RY8): 0.4444; GPCR activation (heatmap value) (ADORA2A): 0.347; GPCR activation (heatmap value) (PK1): -0.4687 |
| CC(C)Cc1ncc(CCCCNC(=N)N)[nH]c1=O [3-Homo] | -0.2435 | -0.3479 | 0.2692 | -0.7717 | -0.1375 | -0.4672 | 0.7434 | -0.3278 | 0.1239 | 0.04802 | 0.2712 | 0.08121 | -0.2703 | -1.142 | -0.1206 | -0.3396 | -0.07966 | 0.8114 | -0.5012 | -0.3082 | GPCR activation (heatmap value) (HCTR1): 0.1163; GPCR activation (heatmap value) (GPER): -0.07314; GPCR activation (heatmap value) (CHRM3): 0.5889; GPCR activation (heatmap value) (P2RY12): 0.3372; GPCR activation (heatmap value) (BDKBR1): -0.9993; GPCR activation (heatmap value) (S1PR4): 0.5734; GPCR activation (heatmap value) (HTR2A): -0.1726; GPCR activation (heatmap value) (C5A): 0.3516; GPCR activation (heatmap value) (PK2): -0.9094; GPCR activation (heatmap value) (CNR1): -0.2406; GPCR activation (heatmap value) (VIPR2): 0.5382; GPCR activation (heatmap value) (GPR20): 0.638; GPCR activation (heatmap value) (GHSR): 0.75; GPCR activation (heatmap value) (P2RY8): 0.2867; GPCR activation (heatmap value) (ADORA2A): 0.2086; GPCR activation (heatmap value) (PK1): -0.2718 |
